Source: patent publication US20260001928A1 (CORTERIA PHARMACEUTICALS, priority 2022, published 2026)
*1 amine or outer side, *2 acyl side, *3 side chain or, on linkers, in order; H or OH if unused. Where a SMILES comes first, the peptide text is derived from it. Side-chain parts run from the residue outwards. [ ]: non-standard residue; d: D form. The star is where a group is joined. C16 diacid = O=C(O)CCCCCCCCCCCCCCC(=O)*; γGlu = O=C(O)[C@H](CCC(=O)[*:2])N[*:1]; C14 diacid = O=C(O)CCCCCCCCCCCCC(=O)*; Api = NC1(C(=O)O)CCNCC1; Aib = CC(C)(N)C(=O)O

Legend:
human CRF2a receptor = target: T1, human CRF2a receptor (Homo sapiens, UniProt Q13324); assay: Activity at human CRF2a receptor, cAMP functional assay in TeloHEAC cells; type: cell-based; conditions: TeloHEAC cells stably expressing human CRF2a receptor, relative to urocortin 2 (100 nM = 100%)
T1 construct: expressed in transfected cells; host or cells: TeloHEAC cells
T1 sequence (Q13324 1-411): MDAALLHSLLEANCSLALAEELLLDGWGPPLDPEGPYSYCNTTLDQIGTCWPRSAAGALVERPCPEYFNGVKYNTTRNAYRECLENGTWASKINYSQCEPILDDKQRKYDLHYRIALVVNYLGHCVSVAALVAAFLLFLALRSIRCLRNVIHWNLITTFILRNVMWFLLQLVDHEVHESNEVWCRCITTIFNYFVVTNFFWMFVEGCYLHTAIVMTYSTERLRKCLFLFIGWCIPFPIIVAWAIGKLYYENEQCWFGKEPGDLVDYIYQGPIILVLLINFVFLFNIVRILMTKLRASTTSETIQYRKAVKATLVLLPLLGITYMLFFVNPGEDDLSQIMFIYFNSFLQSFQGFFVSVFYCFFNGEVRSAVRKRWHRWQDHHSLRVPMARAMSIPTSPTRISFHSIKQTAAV
Summary of the method: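 cAMP accumulation was measured by HTRF 665/620 nm ratio after 30 min at 37° C compound exposure (16 twofold dilutions) of CRF2a-expressing TeloHEAC cells, 10000/well, in HEPES-buffered HBSS plus IBMX. Activity was normalised to urocortin 2 at 100 nM (100%), and EC50 was the concentration giving half-maximal activation.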

CFR1R receptor = target: T2, CFR1R receptor (Homo sapiens, UniProt P34998); assay: Activity at anti-target CFR1R receptor, cAMP assay in CRF1R-overexpression CHO-K1 cells; type: cell-based; conditions: 100% = Sauvagine at 100 nM; for EC50: cAMP
T2 construct: host or cells: CHO-K1 (clone 2)
T2 sequence (P34998 24-415): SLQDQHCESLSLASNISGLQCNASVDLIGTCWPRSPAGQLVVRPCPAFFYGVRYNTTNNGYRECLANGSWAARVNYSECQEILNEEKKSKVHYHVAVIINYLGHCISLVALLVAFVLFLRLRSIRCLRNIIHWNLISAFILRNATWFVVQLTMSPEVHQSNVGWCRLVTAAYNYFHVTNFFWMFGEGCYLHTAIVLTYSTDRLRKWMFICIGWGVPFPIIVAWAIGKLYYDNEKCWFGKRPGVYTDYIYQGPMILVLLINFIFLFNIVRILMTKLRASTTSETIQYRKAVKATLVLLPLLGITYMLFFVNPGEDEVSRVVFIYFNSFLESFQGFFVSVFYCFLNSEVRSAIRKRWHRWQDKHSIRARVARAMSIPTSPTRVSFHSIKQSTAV
Summary of the method: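 Uses frozen stocks of CHO-K1 clone 2 cells overexpressing human CRF1R, plated at 4000 cells/well final, with cAMP measured by the same protocol as the TeloHAEC line. Full-activation control: 100 nM Sauvagine.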

EC50 (human CRF2a receptor)	Emax (% I) (CFR1R receptor)	EC50 (CFR1R receptor)	SMILES
0.77 nM	5 % I	> 250 nM	CC[C@H](C)[C@H](NC(C)=O)C(=O)N[C@H](C(=O)N[C@@H](CC(C)C)C(=O)N[C@@H](CO)C(=O)N[C@@H](CC(C)C)C(=O)N[C@@H](CC(=O)O)C(=O)N[C@@H](C(=O)N1CCC[C@H]1C(=O)N[C@H](C(=O)N[C@@H](CCCCN)C(=O)N[C@@H](CC(C)C)C(=O)N[C@@H](CCCCNC(=O)CC[C@H](NC(=O)CCCCCCCCCCCCCCC(=O)O)C(=O)O)C(=O)N[C@@H](CCCCN)C(=O)N[C@H](C(=O)N[C@@H](CC(C)C)C(=O)N[C@@H](CC(C)C)C(=O)N[C@@H](CCC(=O)O)C(=O)N[C@@H](CCC(N)=O)C(=O)N[C@@H](CCC(=O)O)C(=O)N[C@@H](CCCCN)C(=O)N[C@@H](CCC(N)=O)C(=O)N[C@@H](C)C(=O)N[C@@H](CCCCN)C(=O)N[C@@H](CCC(N)=O)C(=O)N[C@@H](CCCNC(=N)N)C(=O)N[C@@H](CCC(=O)O)C(=O)N[C@@H](CCC(N)=O)C(=O)N[C@@H](C)C(=O)N[C@@H](CCC(=O)O)C(=O)N[C@H](C(=O)N[C@@H](CC(N)=O)C(=O)NC(C)(C)C(=O)N[C@@H](CCC(N)=O)C(=O)N[C@H](C(=O)N[C@@H](CC(C)C)C(=O)N[C@@H](C)C(=O)N[C@@H](CCC(N)=O)C(=O)N[C@H](C(N)=O)C(C)C)[C@@H](C)CC)[C@@H](C)O)[C@@H](C)CC)[C@@H](C)CC)C(C)C)C(C)C [compound 166] (Ac-IVLSLD[dV]PIKLK([γGlu-C16 diacid])KILLEQEKQAKQREQAETN[Aib]QILAQV-NH2)
1.15 nM	7 % I	> 250 nM	CC[C@H](C)[C@H](NC(C)=O)C(=O)N[C@H](C(=O)N[C@@H](CC(C)C)C(=O)N[C@@H](CO)C(=O)N[C@@H](CC(C)C)C(=O)N[C@@H](CC(=O)O)C(=O)N[C@@H](C(=O)N1CCC[C@H]1C(=O)N[C@H](C(=O)N[C@@H](CCCCN)C(=O)N[C@@H](CC(C)C)C(=O)N[C@@H](CCCCNC(=O)CC[C@H](NC(=O)CCCCCCCCCCCCCCC(=O)O)C(=O)O)C(=O)N[C@@H](CCCCN)C(=O)N[C@H](C(=O)N[C@@H](CC(C)C)C(=O)N[C@@H](CC(C)C)C(=O)N[C@@H](CCC(=O)O)C(=O)N[C@@H](CCC(N)=O)C(=O)N[C@@H](CCC(=O)O)C(=O)N[C@@H](CCCCN)C(=O)N[C@@H](CCC(N)=O)C(=O)N[C@@H](CCCCN)C(=O)N[C@@H](CCCCN)C(=O)N[C@@H](CCC(N)=O)C(=O)N[C@@H](C)C(=O)N[C@@H](CCC(=O)O)C(=O)N[C@@H](CCC(N)=O)C(=O)N[C@@H](C)C(=O)N[C@@H](CCC(=O)O)C(=O)N[C@H](C(=O)N[C@@H](CC(N)=O)C(=O)NC(C)(C)C(=O)N[C@@H](CCC(N)=O)C(=O)N[C@H](C(=O)N[C@@H](CC(C)C)C(=O)N[C@@H](C)C(=O)N[C@@H](CCC(N)=O)C(=O)N[C@H](C(N)=O)C(C)C)[C@@H](C)CC)[C@@H](C)O)[C@@H](C)CC)[C@@H](C)CC)C(C)C)C(C)C [compound 167] (Ac-IVLSLD[dV]PIKLK([γGlu-C16 diacid])KILLEQEKQKKQAEQAETN[Aib]QILAQV-NH2)
0.8 nM	3 % I	> 250 nM	CC[C@H](C)[C@H](NC(C)=O)C(=O)N[C@H](C(=O)N[C@@H](CC(C)C)C(=O)N[C@@H](CO)C(=O)N[C@@H](CC(C)C)C(=O)N[C@@H](CC(=O)O)C(=O)N[C@@H](C(=O)N1CCC[C@H]1C(=O)N[C@H](C(=O)N[C@@H](CCCCN)C(=O)N[C@@H](CC(C)C)C(=O)N[C@@H](CCCCNC(=O)CC[C@H](NC(=O)CCCCCCCCCCCCCCC(=O)O)C(=O)O)C(=O)N[C@@H](CCCCN)C(=O)N[C@H](C(=O)N[C@@H](CC(C)C)C(=O)N[C@@H](CC(C)C)C(=O)N[C@@H](CCC(=O)O)C(=O)N[C@@H](CCC(N)=O)C(=O)N[C@@H](CCC(=O)O)C(=O)N[C@@H](CCCCN)C(=O)N[C@@H](CCC(N)=O)C(=O)N[C@@H](CCCCN)C(=O)N[C@@H](CCC(=O)O)C(=O)N[C@@H](CCC(N)=O)C(=O)N[C@@H](CCCNC(=N)N)C(=O)N[C@@H](CCC(=O)O)C(=O)N[C@@H](CCC(N)=O)C(=O)N[C@@H](C)C(=O)N[C@@H](CCC(=O)O)C(=O)N[C@H](C(=O)N[C@@H](CC(N)=O)C(=O)NC(C)(C)C(=O)N[C@@H](CCC(N)=O)C(=O)N[C@H](C(=O)N[C@@H](CC(C)C)C(=O)N[C@@H](C)C(=O)N[C@@H](CCC(N)=O)C(=O)N[C@H](C(N)=O)C(C)C)[C@@H](C)CC)[C@@H](C)O)[C@@H](C)CC)[C@@H](C)CC)C(C)C)C(C)C [compound 168] (Ac-IVLSLD[dV]PIKLK([γGlu-C16 diacid])KILLEQEKQKEQREQAETN[Aib]QILAQV-NH2)
1.34 nM	13 % I	> 250 nM	CC[C@H](C)[C@H](NC(C)=O)C(=O)N[C@H](C(=O)N[C@@H](CC(C)C)C(=O)N[C@@H](CO)C(=O)N[C@@H](CC(C)C)C(=O)N[C@@H](CC(=O)O)C(=O)N[C@@H](C(=O)N1CCC[C@H]1C(=O)N[C@H](C(=O)N[C@@H](CCCCN)C(=O)N[C@@H](CC(C)C)C(=O)N[C@@H](CCCCNC(=O)CC[C@H](NC(=O)CCCCCCCCCCCCC(=O)O)C(=O)O)C(=O)N[C@@H](CCCCN)C(=O)N[C@H](C(=O)N[C@@H](CC(C)C)C(=O)N[C@@H](CC(C)C)C(=O)N[C@@H](CCC(=O)O)C(=O)N[C@@H](CCC(N)=O)C(=O)N[C@@H](CCC(=O)O)C(=O)N[C@@H](CCCCN)C(=O)N[C@@H](CCC(N)=O)C(=O)N[C@@H](CCCCN)C(=O)N[C@@H](C)C(=O)N[C@@H](CCC(N)=O)C(=O)N[C@@H](CCCNC(=N)N)C(=O)N[C@@H](CCC(=O)O)C(=O)N[C@@H](CCC(N)=O)C(=O)N[C@@H](C)C(=O)N[C@@H](CCC(=O)O)C(=O)N[C@H](C(=O)N[C@@H](CC(N)=O)C(=O)NC1(C(=O)N[C@@H](CCC(N)=O)C(=O)N[C@H](C(=O)N[C@@H](CC(C)C)C(=O)N[C@@H](C)C(=O)N[C@@H](CCC(N)=O)C(=O)N[C@H](C(N)=O)C(C)C)[C@@H](C)CC)CCNCC1)[C@@H](C)O)[C@@H](C)CC)[C@@H](C)CC)C(C)C)C(C)C [compound 169] (Ac-IVLSLD[dV]PIKLK([γGlu-C14 diacid])KILLEQEKQKAQREQAETN[Api]QILAQV-NH2)
1.28 nM	5 % I	> 250 nM	CC[C@H](C)[C@H](NC(C)=O)C(=O)N[C@H](C(=O)N[C@@H](CC(C)C)C(=O)N[C@@H](CO)C(=O)N[C@@H](CC(C)C)C(=O)N[C@@H](CC(=O)O)C(=O)N[C@@H](C(=O)N1CCC[C@H]1C(=O)N[C@H](C(=O)N[C@@H](CCCCN)C(=O)N[C@@H](CC(C)C)C(=O)N[C@@H](CCCCNC(=O)CC[C@H](NC(=O)CCCCCCCCCCCCC(=O)O)C(=O)O)C(=O)N[C@@H](CCCCN)C(=O)N[C@H](C(=O)N[C@@H](CC(C)C)C(=O)N[C@@H](CC(C)C)C(=O)N[C@@H](CCC(=O)O)C(=O)N[C@@H](CCC(N)=O)C(=O)N[C@@H](CCC(=O)O)C(=O)N[C@@H](CCCCN)C(=O)N[C@@H](CCC(N)=O)C(=O)N[C@@H](CCCCN)C(=O)NC(C)(C)C(=O)N[C@@H](CCC(N)=O)C(=O)N[C@@H](CCCNC(=N)N)C(=O)N[C@@H](CCC(=O)O)C(=O)N[C@@H](CCC(N)=O)C(=O)N[C@@H](C)C(=O)N[C@@H](CCC(=O)O)C(=O)N[C@H](C(=O)N[C@@H](CC(N)=O)C(=O)NC1(C(=O)N[C@@H](CCC(N)=O)C(=O)N[C@H](C(=O)N[C@@H](CC(C)C)C(=O)N[C@@H](C)C(=O)N[C@@H](CCC(N)=O)C(=O)N[C@H](C(N)=O)C(C)C)[C@@H](C)CC)CCNCC1)[C@@H](C)O)[C@@H](C)CC)[C@@H](C)CC)C(C)C)C(C)C [compound 170] (Ac-IVLSLD[dV]PIKLK([γGlu-C14 diacid])KILLEQEKQK[Aib]QREQAETN[Api]QILAQV-NH2)
